Numbered stars: 1 amine (or outer) side, 2 acyl side, 3 side chain; on linkers, the order of the positions; unused ones are H or OH. Square brackets hold non-standard residues; d marks the D form. Side chains are listed from the residue outwards. Peptide text beside a SMILES is read from it. * marks the point of attachment. C20 diacid = O=C(O)CCCCCCCCCCCCCCCCCCC(=O)*; C18 diacid = O=C(O)CCCCCCCCCCCCCCCCC(=O)*; γGlu = O=C(O)[C@H](CCC(=O)[*:2])N[*:1]; αMeL = CC(C)C[C@](C)(N)C(=O)O; AEEA = NCCOCCOCC(=O)O; Aib = CC(C)(N)C(=O)O
Key:
human Gcg receptor = biological target: T1, human Gcg receptor (Homo sapiens, UniProt P47871); experiment: [125I]-Glucagon binding (SPA), human Gcg receptor; conditions: read-out: hGLcgR Ki, nM (SEM, n)
T1 construct: expressed in transfected cells; crude membranes
How it was run: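 Crude membranes from cells expressing the receptor, prepared by hypotonic lysis in 50 mM Tris HCl pH 7.5 with protease inhibitors, homogenization and differential centrifugation, were used in a WGA-bead SPA. Binding buffer: 25 mM HEPES pH 7.4, 2.5 mM CaCl2, 1 mM MgCl2, bacitracin, Tween-20.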

human GLP-1R [1] = biological target: T2, human GLP-1R (Homo sapiens, UniProt P43220); experiment: GLP-1R HEK293 cell membrane [35S]GTPγS binding assay; assay type: biochemical; set-up: expressed in transfected cells; host or cells: HEK293 cells expressing human GLP-1R; membranes; conditions: HEK293 cell membranes expressing human GLP-1R, [35S]GTPγS binding; read-out: hGLP1R GTPgS Rel EC50 nM (SEM, n)
Description: The GLP-1 receptor is a G-protein coupled receptor that increases GTP-bound Gas upon ligand induced receptor activation. The potency of peptides to stimulate-GLP-1R induced activation of Gac is determined using preparations of purified membranes from HEK293 cells expressing the human GLP-1R. […] The test peptides are solubilized in DMSO and diluted in reaction buffer containing 5 μg of membrane in 20 mM HEPES pH 7.4, 50 mM NaCl, 5 mM MgCl2, 40 μg/ml saponin, 0.1% BSA, and […] ^35S-labeled GTPTS for 30 minutes at room temperature. Reactions are terminated by addition of 0.2% Nonidet β-40 detergent containing rabbit anti-Gas polyclonal antibody and 0.5 mg of anti-rabbit polyvinyltoluene beads. Mixtures are developed for 30 minutes, centrifuged at 80×g for 10 minutes, and counted for 1 minute/well using a MicroBeta TriLux instrument. Peptide concentration-response curves are fit to a four-parameter logistic model to calculate potency as an EC50.

[2] = biological target: T3, gastric inhibitory peptide receptor (GIPR) (Homo sapiens, UniProt P48546); experiment: cAMP pharmacological functional assay in presence of casein, hGIPR; assay type: cell-based; conditions: HEK293 cells expressing hGIPR, 0.1% Casein, geometric mean; read-out: hGIPR cAMP Rel EC50 nM (SEM, n)
T3 sequence (P48546 22-466): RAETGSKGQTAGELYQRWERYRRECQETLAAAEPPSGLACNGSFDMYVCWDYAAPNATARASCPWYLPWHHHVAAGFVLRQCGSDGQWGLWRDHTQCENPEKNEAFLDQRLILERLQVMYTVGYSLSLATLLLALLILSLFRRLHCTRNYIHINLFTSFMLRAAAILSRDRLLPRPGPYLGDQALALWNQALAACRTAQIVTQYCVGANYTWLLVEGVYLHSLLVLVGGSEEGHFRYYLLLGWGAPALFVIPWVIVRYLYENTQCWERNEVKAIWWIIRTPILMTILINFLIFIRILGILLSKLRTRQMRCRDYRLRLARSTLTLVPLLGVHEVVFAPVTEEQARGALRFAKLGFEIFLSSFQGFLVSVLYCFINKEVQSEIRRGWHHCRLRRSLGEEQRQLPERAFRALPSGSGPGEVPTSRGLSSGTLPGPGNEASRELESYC

[3] = biological target: human GLP-1 receptor (GLP-1R) (Homo sapiens, UniProt P43220); experiment: cAMP pharmacological functional assay in presence of casein, hGLP-1R; assay type: cell-based; conditions: HEK293 cells expressing hGLP-1R, 0.1% Casein, geometric mean; read-out: hGLP1R cAMP Rel EC50 nM (SEM, n)
human GLP-1R [4] = biological target: T2, human GLP-1R; experiment: [125I]-GLP-1 binding (SPA), human GLP-1 receptor; set-up: expressed in transfected cells; crude membranes; conditions: read-out: hGLP1R Ki, (nM) (SEM, n)
How it was run: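 Membranes: hypotonic lysis (50 mM Tris HCl, pH 7.5, protease inhibitors), Potter-Elvehjem homogenization, high-speed pellet (35000×g 1 h or 25000×g 30 min, 4° C.). Buffer: 25 mM HEPES pH 7.4, 2.5 mM CaCl2, 1 mM MgCl2. Four-parameter IC50 fit; Ki as geometric mean ± SEM.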

human GIP receptor = biological target: T4, human GIP receptor (Homo sapiens, UniProt P48546); experiment: [125I]-GIP binding (SPA), human GIP receptor; conditions: read-out: hGIPR Ki, nM (SEM, n)
T4 construct: expressed in transfected cells; crude membranes
T4 sequence (P48546 22-466): T3 sequence (P48546 22-466)

T2 sequence (P43220 24-463): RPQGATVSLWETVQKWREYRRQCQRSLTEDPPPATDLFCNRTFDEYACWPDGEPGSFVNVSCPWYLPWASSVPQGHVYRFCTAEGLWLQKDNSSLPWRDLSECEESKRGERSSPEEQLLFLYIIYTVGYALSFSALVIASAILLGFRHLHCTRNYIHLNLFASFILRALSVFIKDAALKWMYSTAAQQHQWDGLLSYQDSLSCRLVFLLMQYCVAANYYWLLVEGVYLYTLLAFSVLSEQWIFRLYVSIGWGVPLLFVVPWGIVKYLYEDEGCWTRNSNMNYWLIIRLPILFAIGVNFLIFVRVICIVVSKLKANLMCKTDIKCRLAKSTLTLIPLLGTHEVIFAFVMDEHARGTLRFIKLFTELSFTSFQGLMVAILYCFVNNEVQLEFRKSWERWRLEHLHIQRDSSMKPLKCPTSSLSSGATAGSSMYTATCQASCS
Sequence of human GLP-1 receptor (GLP-1R) (P43220 24-463): as above
T1 sequence (P47871 26-477): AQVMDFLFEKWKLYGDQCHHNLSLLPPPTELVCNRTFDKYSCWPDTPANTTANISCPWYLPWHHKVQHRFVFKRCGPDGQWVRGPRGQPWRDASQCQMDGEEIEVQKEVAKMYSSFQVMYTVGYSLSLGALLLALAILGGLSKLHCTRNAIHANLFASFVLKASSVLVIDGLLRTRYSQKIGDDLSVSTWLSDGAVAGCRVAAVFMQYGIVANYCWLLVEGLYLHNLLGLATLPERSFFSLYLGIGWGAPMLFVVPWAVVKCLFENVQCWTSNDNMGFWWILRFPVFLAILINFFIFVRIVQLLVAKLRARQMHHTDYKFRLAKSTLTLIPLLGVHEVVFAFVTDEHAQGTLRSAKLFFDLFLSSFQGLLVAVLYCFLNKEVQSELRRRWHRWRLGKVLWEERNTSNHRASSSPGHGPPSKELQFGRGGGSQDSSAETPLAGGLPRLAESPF

Ki (human Gcg receptor)	EC50 (human GLP-1R [1])	EC50 [2]	EC50 [3]	Ki (human GLP-1R [4])	Ki (human GIP receptor)	Compound
> 855 nM	0.561 nM	0.0296 nM	0.191 nM	4.44 nM	0.0499 nM	CC[C@H](C)[C@H](NC(=O)[C@H](CC(C)C)NC(=O)[C@H](Cc1ccc(O)cc1)NC(=O)[C@H](CCC(=O)O)NC(=O)[C@@H](NC(=O)[C@H](Cc1ccccc1)NC(=O)[C@H](CCC(=O)O)NC(=O)C(C)(C)NC(=O)[C@H](CCC(N)=O)NC(=O)[C@H](C)NC(=O)[C@H](CCCCNC(=O)COCCOCCNC(=O)COCCOCCNC(=O)CC[C@H](NC(=O)CCCCCCCCCCCCCCCCC(=O)O)C(=O)O)NC(=O)[C@H](CCCCN)NC(=O)[C@H](CC(=O)O)NC(=O)[C@H](CC(C)C)NC(=O)[C@](C)(CC(C)C)NC(=O)[C@@H](NC(=O)[C@H](CO)NC(=O)[C@H](Cc1ccc(O)cc1)NC(=O)[C@H](CC(=O)O)NC(=O)[C@H](CO)NC(=O)[C@@H](NC(=O)[C@H](Cc1ccccc1)NC(=O)[C@@H](NC(=O)CNC(=O)[C@H](CCC(=O)O)NC(=O)C(C)(C)NC(=O)[C@@H](N)Cc1ccc(O)cc1)[C@@H](C)O)[C@@H](C)O)[C@@H](C)CC)[C@@H](C)CC)C(=O)N[C@@H](CCC(=O)O)C(=O)NCC(=O)NCC(=O)N1CCC[C@H]1C(=O)N[C@@H](CO)C(=O)N[C@@H](CO)C(=O)NCC(N)=O [Example 304] (H-Y[Aib]EGTFTSDYSI[αMeL]LDKK([AEEA-AEEA-γGlu-C18 diacid])AQ[Aib]EFIEYLIEGGPSSG-NH2)
> 1040 nM	0.378 nM	0.0191 nM	0.0711 nM	2.86 nM	0.0349 nM	CC[C@H](C)[C@H](NC(=O)[C@H](CC(C)C)NC(=O)[C@H](Cc1ccc(O)cc1)NC(=O)[C@H](CCC(=O)O)NC(=O)[C@@H](NC(=O)[C@H](Cc1ccccc1)NC(=O)[C@H](CCC(=O)O)NC(=O)C(C)(C)NC(=O)[C@H](CCC(N)=O)NC(=O)[C@H](C)NC(=O)[C@H](CCCCNC(=O)COCCOCCNC(=O)COCCOCCNC(=O)CC[C@H](NC(=O)CCCCCCCCCCCCCCCCC(=O)O)C(=O)O)NC(=O)[C@H](CCCCN)NC(=O)[C@H](CC(=O)O)NC(=O)[C@H](CC(C)C)NC(=O)[C@](C)(CC(C)C)NC(=O)[C@@H](NC(=O)[C@H](CO)NC(=O)[C@H](Cc1ccc(O)cc1)NC(=O)[C@H](CC(=O)O)NC(=O)[C@H](CO)NC(=O)[C@@H](NC(=O)[C@H](Cc1ccccc1)NC(=O)[C@@H](NC(=O)CNC(=O)[C@H](CCC(=O)O)NC(=O)C(C)(C)NC(=O)[C@@H](N)Cc1ccc(O)cc1)[C@@H](C)O)[C@@H](C)O)[C@@H](C)CC)[C@@H](C)CC)C(=O)N[C@@H](C)C(=O)NCC(=O)NCC(=O)N1CCC[C@H]1C(=O)N[C@@H](CO)C(=O)N[C@@H](CO)C(=O)NCC(N)=O [Example 306] (H-Y[Aib]EGTFTSDYSI[αMeL]LDKK([AEEA-AEEA-γGlu-C18 diacid])AQ[Aib]EFIEYLIAGGPSSG-NH2)

Further lines, the molecule ahead of its results:

Compound	Ki (human Gcg receptor)	EC50 (human GLP-1R [1])	EC50 [2]	EC50 [3]	Ki (human GLP-1R [4])	Ki (human GIP receptor)
CC[C@H](C)[C@H](NC(=O)[C@H](CC(C)C)NC(=O)[C@H](Cc1ccc(O)cc1)NC(=O)[C@H](CCC(=O)O)NC(=O)[C@@H](NC(=O)[C@H](Cc1ccccc1)NC(=O)[C@H](C)NC(=O)C(C)(C)NC(=O)[C@H](CCC(N)=O)NC(=O)[C@H](C)NC(=O)[C@H](CCCCNC(=O)COCCOCCNC(=O)COCCOCCNC(=O)CC[C@H](NC(=O)CCCCCCCCCCCCCCCCCCC(=O)O)C(=O)O)NC(=O)[C@H](CCCCN)NC(=O)[C@H](CC(=O)O)NC(=O)[C@H](CC(C)C)NC(=O)[C@H](CC(C)C)NC(=O)[C@@H](NC(=O)[C@H](CO)NC(=O)[C@H](Cc1ccc(O)cc1)NC(=O)[C@H](CC(=O)O)NC(=O)[C@H](CO)NC(=O)[C@@H](NC(=O)[C@](C)(Cc1ccccc1F)NC(=O)[C@@H](NC(=O)CNC(=O)[C@H](CCC(=O)O)NC(=O)C(C)(C)NC(=O)[C@@H](N)Cc1ccc(O)cc1)[C@@H](C)O)[C@@H](C)O)[C@@H](C)CC)[C@@H](C)CC)C(=O)N[C@@H](CCC(=O)O)C(=O)NCC(=O)NCC(=O)N1CCC[C@H]1C(=O)N[C@@H](CO)C(=O)N[C@@H](CO)C(=O)NCC(=O)N[C@@H](C)C(=O)N1CCC[C@H]1C(=O)N1CCC[C@H]1C(=O)N1CCC[C@H]1C(=O)N[C@@H](CO)C(N)=O [Example 325]	13 nM	0.414 nM	0.0301 nM	0.0586 nM	0.475 nM	0.0209 nM
CC[C@H](C)[C@H](NC(=O)[C@H](CC(C)C)NC(=O)[C@H](Cc1ccc(O)cc1)NC(=O)[C@H](CCC(=O)O)NC(=O)[C@@H](NC(=O)[C@H](Cc1ccccc1)NC(=O)[C@H](CCC(=O)O)NC(=O)C(C)(C)NC(=O)[C@H](CCC(N)=O)NC(=O)[C@H](C)NC(=O)[C@H](CCCCNC(=O)COCCOCCNC(=O)COCCOCCNC(=O)CC[C@H](NC(=O)CCCCCCCCCCCCCCCCCCC(=O)O)C(=O)O)NC(=O)[C@H](CCCCN)NC(=O)[C@H](CC(=O)O)NC(=O)[C@H](CC(C)C)NC(=O)[C@H](CC(C)C)NC(=O)[C@@H](NC(=O)[C@H](CO)NC(=O)[C@H](Cc1ccc(O)cc1)NC(=O)[C@H](CC(=O)O)NC(=O)[C@H](CO)NC(=O)[C@@H](NC(=O)[C@H](Cc1ccccc1)NC(=O)[C@@H](NC(=O)CNC(=O)[C@H](CCC(=O)O)NC(=O)C(C)(C)NC(=O)[C@@H](N)Cc1ccc(O)cc1)[C@@H](C)O)[C@@H](C)O)[C@@H](C)CC)[C@@H](C)CC)C(=O)N[C@@H](C)C(=O)NCC(=O)NCC(=O)N1CCC[C@H]1C(=O)N[C@@H](CO)C(=O)N[C@@H](CO)C(=O)NCC(N)=O [Example 318] (H-Y[Aib]EGTFTSDYSILLDKK([AEEA-AEEA-γGlu-C20 diacid])AQ[Aib]EFIEYLIAGGPSSG-NH2; N-terminus assumed)	730 nM	0.415 nM	0.0547 nM	0.124 nM	7.52 nM	0.0452 nM
CC[C@H](C)[C@H](NC(=O)[C@H](CC(C)C)NC(=O)[C@H](Cc1ccc(O)cc1)NC(=O)[C@H](CCC(=O)O)NC(=O)[C@@H](NC(=O)[C@H](Cc1ccccc1)NC(=O)[C@H](C)NC(=O)C(C)(C)NC(=O)[C@H](CCC(N)=O)NC(=O)[C@H](C)NC(=O)[C@H](CCCCNC(=O)COCCOCCNC(=O)COCCOCCNC(=O)CC[C@H](NC(=O)CCCCCCCCCCCCCCCCCCC(=O)O)C(=O)O)NC(=O)[C@H](CCCCN)NC(=O)[C@H](CC(=O)O)NC(=O)[C@H](CC(C)C)NC(=O)[C@](C)(CC(C)C)NC(=O)[C@@H](NC(=O)[C@H](CO)NC(=O)[C@H](Cc1ccc(O)cc1)NC(=O)[C@H](CC(=O)O)NC(=O)[C@H](CO)NC(=O)[C@@H](NC(=O)[C@H](Cc1ccccc1)NC(=O)[C@@H](NC(=O)CNC(=O)[C@H](CCC(=O)O)NC(=O)C(C)(C)NC(=O)[C@@H](N)Cc1ccc(O)cc1)[C@@H](C)O)[C@@H](C)O)[C@@H](C)CC)[C@@H](C)CC)C(=O)N[C@@H](C)C(=O)NCC(=O)NCC(=O)N1CCC[C@H]1C(=O)N[C@@H](CO)C(=O)N[C@@H](CO)C(=O)NCC(=O)N[C@@H](C)C(=O)N1CCC[C@H]1C(=O)N1CCC[C@H]1C(=O)N1CCC[C@H]1C(=O)N[C@@H](CO)C(N)=O [Example 324] (H-Y[Aib]EGTFTSDYSI[αMeL]LDKK([AEEA-AEEA-γGlu-C20 diacid])AQ[Aib]AFIEYLIAGGPSSGAPPPS-NH2)	449 nM	0.475 nM	0.0374 nM	0.0926 nM	0.609 nM	0.0278 nM
